Series [1] has as its system volunteers (volar forearm). The series can be described thus: Human patch test irritation analysis. It is filed as in vivo. Particulars: 0.25% incorporated into the formulation; Wilcoxon signed rank test, 5% level.
Procedure: Patch tests were performed on mixed panel of 50 volunteers with age ranges between 18 and 55, using a double-blinded protocol with randomised patch sites. Samples (20 mg) were applied to a filter paper that was placed within a Finn™ chamber (0.8 cm internal diameter). The chambers were then attached to the volar forearm using Scanpore™ tape (Norgesplater, Nor.) and left for 47 h.
Series [2] has as its system skin organotypic cultures (Epiderm). The series can be described thus: Viability of skin organotypic cultures (MTT assay). In kind it is cell-based. How it is done:
(§1) The cultures were then incubated at 37° C., 5% CO2, and 95% relative humidity (standard cell culture conditions) for 24 h. The culture medium was assayed for the pro-inflammatory cytokine interleukin-6 (IL-6) and after washing to remove the AP formulation, the viability of the culture was determined using the Thiazoyl blue (MTT) assay (Mosmann, T. J. Immunol. Methods 65, p55 (1983). IL-6 was determined using an Immunoassay (Quantikine, R&D systems).
(§2) In this Example, skin organotypic cultures (Epiderm™, MatTek, USA) were treated topically with the above-identified AP formulation and the trans-10-cis-12 conjugated linoleic acid (TC CLA) was introduced into the medium. The cultures were then incubated at 37° C., 5% CO2, and 95% relative humidity (standard cell culture conditions) for 24 h. The culture medium was assayed for the pro-inflammatory cytokine interleukin-6 (IL-6) and after washing to remove the AP formulation, the viability of the culture was determined by the method described in Example 2.
(§3) The cultures were then incubated at 37° C., 5% CO2, and 95% relative humidity (standard cell culture conditions) for 24 hours. The culture medium was assayed for the pro-inflammatory cytokine interleukin-6 (IL-6) and after washing to remove the AP formulation, the viability of the culture was determined using the MTT assay. IL-6 was determined using an ELISA assay (R&D systems).
(In general: Formazan colour is commonly taken as a measure of viable cells.)

The target in series [3] is T1, human PPARα (Homo sapiens, UniProt Q07869).
T1 construct: The coding region of a human PPARα cDNA was inserted downstream of the CMV promoter; expressed in transfected cells; host or cells: Cos-7 cells, transient transfection (pcDNA3.1(−)-PPARα, pRSV-RXRα, 3xPPRE-TK-luc reporter, pRL-TK)
T1 sequence (Q07869 1-468): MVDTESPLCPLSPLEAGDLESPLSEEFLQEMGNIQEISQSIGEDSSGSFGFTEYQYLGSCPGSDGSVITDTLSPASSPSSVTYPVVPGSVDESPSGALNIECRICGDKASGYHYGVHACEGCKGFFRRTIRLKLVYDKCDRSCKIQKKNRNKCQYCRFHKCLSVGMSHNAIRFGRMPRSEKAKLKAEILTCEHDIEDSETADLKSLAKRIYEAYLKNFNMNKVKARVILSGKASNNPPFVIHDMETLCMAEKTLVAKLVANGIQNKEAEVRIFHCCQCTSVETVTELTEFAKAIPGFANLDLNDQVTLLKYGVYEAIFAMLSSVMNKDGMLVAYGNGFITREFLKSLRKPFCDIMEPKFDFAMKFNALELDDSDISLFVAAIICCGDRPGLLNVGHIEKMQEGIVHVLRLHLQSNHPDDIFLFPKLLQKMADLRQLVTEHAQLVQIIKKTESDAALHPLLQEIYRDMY
T1 sequence (P19793 1-462 partner): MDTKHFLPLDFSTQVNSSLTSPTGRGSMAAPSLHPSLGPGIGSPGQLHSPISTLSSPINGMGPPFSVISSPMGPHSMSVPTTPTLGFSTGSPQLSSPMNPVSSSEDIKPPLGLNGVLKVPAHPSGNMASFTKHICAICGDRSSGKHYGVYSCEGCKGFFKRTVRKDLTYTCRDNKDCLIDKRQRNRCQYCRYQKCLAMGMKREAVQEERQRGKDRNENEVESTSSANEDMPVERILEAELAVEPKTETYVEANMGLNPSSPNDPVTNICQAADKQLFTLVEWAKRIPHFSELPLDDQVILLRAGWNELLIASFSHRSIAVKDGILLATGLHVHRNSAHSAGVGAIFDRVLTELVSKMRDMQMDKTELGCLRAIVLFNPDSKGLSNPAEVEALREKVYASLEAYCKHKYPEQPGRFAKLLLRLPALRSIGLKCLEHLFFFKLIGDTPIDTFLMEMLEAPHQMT
The series can be described thus: PPARα reporter gene assay (firefly luciferase, transiently transfected Cos-7 cells). In kind it is cell-based. In general terms: Reporter assays use an easily measured gene product as a stand-in for the process of interest.

Series [4] deals with interleukin-6 (IL-6). Kind of series: Skin organotypic culture analysis: AP-induced IL-6 release into the medium. It is filed as cell-based. Particulars: 500 μM in medium, AP formulation topical, 24 h; Dunnet's test p<0.05. On the procedure: as §1, §2, §3

The text below walks through data of patent publication US6713051B2, “Antiperspirant or deodorant compositions” (Unilever Home & Personal Care USA division of Conopco, Inc., priority 2001, dated 2004).

Take `CCCCCCCCCCC/C=C\CCCCC(=O)O` [Petroselinic acid, petroselinic acid]: the “mitigation of irritation induced by the prototype pump spray” value in series [1] is “significantly mitigated”. Moreover, the Culture viability entry in series [2] (Example 2: AP formulation alone vs AP formulation and petroselinic acid) was “not significantly different”; in series [2] (Example 4: AP treatment alone vs AP and acid treatment), “not significantly different”. Further, in series [3], the “Result at (lowest administration level at which super or MS activity was achieved)” value came to 100 μm. Further, in series [3] (class reached), the “Result (superior activity class achieved)” value is “MS (more superior activity [MS] (100% higher—at least 3 times PPARα activation))”. Also, the “Pass at (lowest tested administration level at which the test material passed)” value in series [3] (pass = activation greater than oleic acid at 100 μM, commonly >1.57 times vehicle control, 24 h treatment) came out at 10 μm. For the same compound, the “AP-induced IL-6 release” value in series [4] is “significantly decrease”.
